Data as given in patent US9862707B2, “TrkA kinase inhibitors, compositions and methods thereof” (Merck Sharp & Dohme Corp., priority 2014, dated 2018).

Each compound was assayed against human TrkA receptor (Homo sapiens (Human), UniProt P04629) (assay: TrkA functional activity, DiscoverX PathHunter assay). Conditions: U2OS cells expressing human TrkA-PK, Shc1-EA and p75NTR; compound 1 h, then NGF at ~80% of maximal response for 3 h; luminescence.
human TrkA receptor, sequence (P04629 33-796): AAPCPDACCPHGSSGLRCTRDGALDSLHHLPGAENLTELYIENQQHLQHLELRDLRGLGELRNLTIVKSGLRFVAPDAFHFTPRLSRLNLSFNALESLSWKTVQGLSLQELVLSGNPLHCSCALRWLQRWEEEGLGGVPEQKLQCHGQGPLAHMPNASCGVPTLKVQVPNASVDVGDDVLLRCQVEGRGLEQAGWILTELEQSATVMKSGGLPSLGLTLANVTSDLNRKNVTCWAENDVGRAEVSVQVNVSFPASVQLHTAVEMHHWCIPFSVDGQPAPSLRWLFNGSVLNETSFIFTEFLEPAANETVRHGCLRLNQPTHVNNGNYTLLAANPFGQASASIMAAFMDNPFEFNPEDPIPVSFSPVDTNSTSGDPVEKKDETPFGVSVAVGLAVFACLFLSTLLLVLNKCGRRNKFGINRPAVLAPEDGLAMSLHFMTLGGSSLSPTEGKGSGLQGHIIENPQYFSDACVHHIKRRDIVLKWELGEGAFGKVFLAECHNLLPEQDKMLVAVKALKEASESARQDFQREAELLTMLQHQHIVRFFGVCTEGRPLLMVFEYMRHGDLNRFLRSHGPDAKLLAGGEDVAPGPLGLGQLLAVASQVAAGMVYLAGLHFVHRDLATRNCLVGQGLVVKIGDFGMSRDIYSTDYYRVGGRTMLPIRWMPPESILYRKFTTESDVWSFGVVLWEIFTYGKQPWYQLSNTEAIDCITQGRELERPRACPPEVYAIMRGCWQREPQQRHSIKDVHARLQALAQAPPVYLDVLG
Type: cell-based
Description: TrkA functional activity was measured using a DiscoverX PathHunter assay. In this assay, U2OS cells express the human TrkA receptor as a fusion with the weakly complementing fragment of B-galactosidase, which DiscoverX calls “Prolink (PK)”; additionally, Shc1 is fused with a larger fragment, which is called “Enzyme Acceptor (EA)”. Activation of the TrkA receptor, upon NGF addition, results in the kinase domain being phosphorylated, resulting in subsequent recruitment of Shc1-EA protein. That recruitment results in an active B-galactosidase enzyme that is detected by addition of a chemiluminescent substrate. The human p75^NTR protein was also expressed as a co-receptor for NGF.
All reagents were purchased from DiscoverX, except for the receptor agonists (NGF, BDNF, NT3) which were purchased from Peprotech. Cells were expanded and frozen into cryovials, and stored in the vapor phase of liquid nitrogen, and thawed immediately before use. Thawed cells were added to a 384-well plate at 7500 cells/well, and allowed to incubate overnight. Compound at various concentrations was added the following morning and allowed to incubate on cells for 1 h. Then, NGF was added at a concentration sufficient to elicit ˜80% of a maximal response and allowed to incubate for 3 h at ambient temperature. DiscoverX PathHunter detection reagent was then added and the plate was further incubated for 1 h in the dark. The plate was then read via luminescence on the Perkin Elmer Envision.
`CC(C)(O)c1cnc2nn(-c3ccccc3)c(NC(=O)c3cc(-c4ncccn4)c(C(F)(F)F)cc3F)c2c1` [Compound 45, 2-fluoro-N-[5-(1-hydroxy-1-methylethyl)-2-phenyl-2H-pyrazolo[3,4-b]pyridin-3-yl]-5-pyrimidin-2-yl-4-(trifluoromethyl)benzamide] was tested, and the IC50 was 12 nM. `Cn1ccc(-c2cc(C(=O)Nc3c4ncc(C(N)=O)cc4nn3-c3ccccc3)ccc2C(F)(F)F)n1` [Compound 86, 3-({[3-(1-methyl-1H-pyrazol-3-yl)-4-(trifluoromethyl)phenyl]carbonyl}amino)-2-phenyl-2H-pyrazolo[4,3-b]pyridine-6-carboxamide] gave an IC50 of 2.8 nM. With `NC(=O)c1cc2nn(-c3ccccc3)c(NC(=O)c3cc(-c4ncccn4)c(C(F)(F)F)cc3F)c2cn1` [Compound 76, 3-(2-Fluoro-5-(pyrimidin-2-yl)-4-(trifluoromethyl)benzamido)-2-phenyl-2H-pyrazolo[4,3-c]pyridine-6-carboxamide] the IC50 was 36 nM. For `Cn1ccc(-c2cc(C(=O)Nc3c4nccc(CN5C(=O)CNC5=O)c4nn3-c3ccccc3)c(F)cc2C(F)(F)F)n1` [Compound 99, N-(7-((2,5-dioxoimidazolidin-1-yl)methyl)-2-phenyl-2H-pyrazolo[4,3-b]pyridin-3-yl)-2-fluoro-5-(1-methyl-1H-pyrazol-3-yl)-4-(trifluoromethyl)benzamide], the IC50 was 0.88 nM. For `CC(O)c1ccc2c(NC(=O)c3cc(-c4ncccn4)c(C(F)(F)F)cc3Cl)n(-c3ccccc3)nc2c1` (single isomer, unassigned; isomer a) [Compound 37, (R or S)-2-chloro-N-[6-(1-hydroxyethyl)-2-phenyl-2H-indazol-3-yl]-5-pyrimidin-2-yl-4-(trifluoromethyl)benzamide, isomer A], the IC50 was 4.4 nM. `Cn1ccc(-c2cc(C(=O)Nc3c4ccc(CNCCO)cc4nn3-c3ccccc3)c(F)cc2C(F)(F)F)n1` [Compound 72, 2-fluoro-N-(6-{[(2-hydroxyethyl)amino]methyl}-2-phenyl-2H-indazol-3-yl)-5-(1-methyl-1H-pyrazol-3-yl)-4-(trifluoromethyl)benzamide] showed an IC50 of 6.5 nM. `Cc1ccccc1-n1nc2cc(C(N)=O)ccc2c1NC(=O)c1cc(-c2ncccn2)c(C(F)(F)F)cc1F` [Compound 93, 3-({[2-fluoro-5-pyrimidin-2-yl-4-(trifluoromethyl)phenyl]carbonyl}amino)-2-(2-methylphenyl)-2H-indazole-6-carboxamide] gave an IC50 of 32 nM. With `Cn1ccc(-c2cc(C(=O)Nc3c4cc(CO)ncc4nn3-c3ccccc3)c(F)cc2C(F)(F)F)n1` [Compound 18, 2-fluoro-N-[5-(hydroxymethyl)-2-phenyl-2H-pyrazolo[3,4-c]pyridin-3-yl)-5-(1-methyl-1H-pyrazol-3-yl)-4-(trifluoromethyl)benzamide] the IC50 was 1.9 nM. In the case of `Cn1ccc(-c2cc(C(=O)Nc3c4ncccc4nn3-c3ccccc3)c(F)cc2C(F)(F)F)n1` [Compound 5, 2-fluoro-5-(1-methyl-1H-pyrazol-3-yl)-N-(2-phenyl-2H-pyrazolo[4,3-b]pyridin-3-yl)-4-(trifluoromethyl)benzamide], the IC50 is reported as 0.66 nM. With `Cn1ccc(-c2cc(C(=O)Nc3c4ncc(C(C)(C)O)cc4nn3-c3ccccc3)c(F)cc2C(F)(F)F)n1` [Compound 41, 2-Fluoro-N-(6-(2-hydroxypropan-2-yl)-2-phenyl-2H-pyrazolo[4,3-b]pyridin-3-yl)-5-(1-methyl-1H-pyrazol-3-yl)-4-(trifluoromethyl)benzamide] the IC50 was 0.16 nM. In the case of `CN(C)Cc1ccc2nn(-c3ccccc3)c(NC(=O)c3ccc(C(F)(F)F)c(-c4ccn(C)n4)c3)c2c1` [Compound 68, N-{5-[(dimethylamino)methyl]-2-phenyl-2H-indazol-3-yl}-3-(1-methyl-1H-pyrazol-3-yl)-4-(trifluoromethyl)benzamide], the IC50 is reported as 21 nM. With `Cn1ccc(-c2cc(C(=O)Nc3c4ccc(CN)cc4nn3-c3ccccc3)c(F)cc2C(F)(F)F)n1` [Compound 71, N-[6-(aminomethyl)-2-phenyl-2H-indazol-3-yl]-2-fluoro-5-(1-methyl-1H-pyrazol-3-yl)-4-(trifluoromethyl)benzamide] the IC50 was 1.8 nM. `CC(O)c1cnc2c(NC(=O)c3cc(-c4ncccn4)c(C(F)(F)F)cc3F)n(-c3ccccc3)nc2c1` (single isomer, unassigned; isomer a) [Compound 29, (R or S)-2-fluoro-N-[6-(1-hydroxyethyl)-2-phenyl-2H-pyrazolo[4,3-b]pyridin-3-yl]-5-pyrimidin-2-yl-4-(trifluoromethyl)benzamide, isomer A] gave an IC50 of 1.8 nM. `CC(O)c1cnc2c(NC(=O)c3cc(-c4cc[nH]n4)c(C(F)(F)F)cc3F)n(-c3ccccc3)nc2c1` (single isomer, unassigned) [Compound 21, 2-Fluoro-N-(6-(1-hydroxyethyl)-2-phenyl-2H-pyrazolo[4,3-b]pyridin-3-yl)-5-(1H-pyrazol-3-yl)-4-(trifluoromethyl)benzamide, isomers A and B] gave an IC50 of 0.69 nM. `COc1ccc2nn(-c3ccccc3)c(NC(=O)c3cc(-c4ncccn4)c(C(F)(F)F)cc3F)c2n1` [Compound 8, 2-fluoro-N-(5-methoxy-2-phenyl-2H-pyrazolo[4,3-b]pyridin-3-yl)-5-pyrimidin-2-yl-4-(trifluoromethyl)benzamide] showed an IC50 of 18 nM. In the case of `NC(=O)c1cnc2c(NC(=O)c3cc(-c4ccccn4)c(C(F)(F)F)cc3F)n(-c3ccccc3)nc2c1` [Compound 84, 3-({[2-fluoro-5-pyridin-2-yl-4-(trifluoromethyl)phenyl]carbonyl}amino)-2-phenyl-2H-pyrazolo[4,3-b]pyridine-6-carboxamide], the IC50 is reported as 2.6 nM. `Cc1ccccc1-n1nc2cc(C(N)=O)cnc2c1NC(=O)c1cc(-c2ncccn2)c(C(F)(F)F)cc1F` [Compound 91, 3-({[2-fluoro-5-pyrimidin-2-yl-4-(trifluoromethyl)phenyl]carbonyl}amino)-2-(2-methylphenyl)-2H-pyrazolo[4,3-b]pyridine-6-carboxamide] was tested, and the IC50 was 52 nM. `CC(O)c1ccc2c(NC(=O)c3cc(-c4ncccn4)c(C(F)(F)F)cc3F)n(-c3ccccc3)nc2c1` (single isomer, unassigned) [Compound 19, (R and S)-2-Fluoro-N-(6-(1-hydroxyethyl)-2-phenyl-2H-indazol-3-yl)-5-(pyrimidin-2-yl)-4-(trifluoromethyl)benzamide, isomers A and B] showed an IC50 of 1.9 nM. Compound `Cn1ccc(-c2cc(C(=O)Nc3c4ncc(C(N)=O)cc4nn3-c3ccccc3)c(F)cc2C(F)(F)F)n1` [Compound 87, 3-({[2-fluoro-5-(1-methyl-1H-pyrazol-3-yl)-4-(trifluoromethyl)phenyl]carbonyl}amino)-2-phenyl-2H-pyrazolo[4,3-b]pyridine-6-carboxamide] has an IC50 of 0.63 nM. Compound `Cn1ccc(-c2cc(C(=O)Nc3c4nc(C(C)(C)O)ncc4nn3-c3ccccc3)c(F)cc2C(F)(F)F)n1` [Compound 43, 2-Fluoro-N-(5-(2-hydroxypropan-2-yl)-2-phenyl-2H-pyrazolo[4,3-d]pyrimidin-3-yl)-5-(1-methyl-1H-pyrazol-3-yl)-4-(trifluoromethyl)benzamide] has an IC50 of 33 nM. `Cn1ccc(-c2cc(C(=O)Nc3c4cc(CO)ccc4nn3-c3ccccc3)ccc2C(F)(F)F)n1` [Compound 10, N-(5-(Hydroxymethyl)-2-phenyl-2H-indazol-3-yl)-3-(1-methyl-1H-pyrazol-3-yl)-4-(trifluoromethyl)benzamide] gave an IC50 of 0.84 nM. Work on `NC(=O)c1cccc2c(NC(=O)c3cc(-c4ncccn4)c(C(F)(F)F)cc3F)n(-c3ccccc3)nc12` [Compound 89, 3-({[2-fluoro-5-pyrimidin-2-yl-4-(trifluoromethyl)phenyl]carbonyl}amino)-2-phenyl-2H-indazole-7-carboxamide] yielded an IC50 of 11 nM. `NC(=O)c1ccc2c(NC(=O)c3cc(-c4ccccn4)c(C(F)(F)F)cc3Cl)n(-c3ccccc3)nc2c1` [Compound 83, 3-({[2-chloro-5-pyridin-2-yl-4-(trifluoromethyl)phenyl]carbonyl}amino)-2-phenyl-2H-indazole-6-carboxamide] gave an IC50 of 6.1 nM. `NC(=O)c1cnc2c(NC(=O)c3cc(-c4ccccn4)c(C(F)(F)F)cc3Cl)n(-c3ccccc3)nc2c1` [Compound 85, 3-({[2-chloro-5-pyridin-2-yl-4-(trifluoromethyl)phenyl]carbonyl}amino)-2-phenyl-2H-pyrazolo[4,3-b]pyridine-6-carboxamide] gave an IC50 of 3.3 nM. For `CC(N)c1ccc2c(NC(=O)c3cc(-c4ncccn4)c(C(F)(F)F)cc3F)n(-c3ccccc3)nc2c1` (single isomer, unassigned) [Compound 70, (R or S)-N-{6-[1-aminoethyl]-2-phenyl-2H-indazol-3-yl}-2-fluoro-5-pyrimidin-2-yl-4-(trifluoromethyl)benzamide], the IC50 was 14 nM. `O=C(Nc1c2ccc(CO)cc2nn1-c1ccccc1)c1cc(-c2ncccn2)c(C(F)(F)F)cc1Cl` [Compound 16, 2-chloro-N-[6-(hydroxymethyl)-2-phenyl-2H-indazol-3-yl]-5-pyrimidin-2-yl-4-(trifluoromethyl)benzamide] showed an IC50 of 7.9 nM. Compound `NCc1cnc2c(NC(=O)c3cc(-c4ncccn4)c(C(F)(F)F)cc3F)n(-c3ccccc3)nc2c1` [Compound 66, N-(6-(Aminomethyl)-2-phenyl-2H-pyrazolo[4,3-b]pyridin-3-yl)-2-fluoro-5-(pyrimidin-2-yl)-4-(trifluoromethyl)benzamide] has an IC50 of 71 nM. For `CC(O)c1cnc2c(NC(=O)c3cc(-c4ncccn4)c(C(F)(F)F)cc3Cl)n(-c3ccccc3)nc2c1` (single isomer, unassigned; isomer b) [Compound 36, (R or S)-2-chloro-N-[6-(1-hydroxyethyl)-2-phenyl-2H-pyrazolo[4,3-b]pyridin-3-yl]-5-pyrimidin-2-yl-4-(trifluoromethyl)benzamide, isomer B], the IC50 was 2.4 nM. Compound `Cn1ccc(-c2cc(C(=O)Nc3c4ccc(C(N)=O)cc4nn3-c3ccccc3)ccc2C(F)(F)F)n1` [Compound 82, 3-({[3-(1-methyl-1H-pyrazol-3-yl)-4-(trifluoromethyl)phenyl]carbonyl}amino)-2-phenyl-2H-indazole-6-carboxamide] has an IC50 of 2.7 nM.
